{"source": "patent US9737493B2", "about": "“Compositions and methods for modulating DNMT1 inhibitor activity” (University of Louisville Research Foundation, Inc., priority 2012, dated 2017)", "format_in_all_cases": "cell-based, human", "key": {"A549 cells [1]": {"system": "A549 cells", "experiment": "Trypan blue exclusion assay", "settings": "A549, 2 μM, 72 h", "procedure": "(§1) FIG. 3: XB05 Induces Apoptotic and Nonapoptotic Cell Death in Malignant Cell Lines. (A) Trypan blue exclusion assay for three human cell lines following treatment with XB05 for 72 h at the concentrations indicated. Data points represent the mean+/−SEM for three independent experiments. (B) Representative phase contrast microscopy images of cells treated with vehicle (72 h), XB05 (72 h with 1 μM for U937 and Hs27, or 2 μM for A549), or 6 μg/mL camptothecin (U937 for 6 h, A549 and Hs27 for 48 h). Cells undergoing apoptotic (black arrows) or non-apoptotic (white arrows) cell death are indicated. (C) Whole cell extracts from cells treated with vehicle, camptothecin, or XB05, as described in part B were western blotted for biochemical markers of apoptosis and GAPDH (loading control). Apoptosis is indicated by cleavage of full-length PARP-1 (116 kDa) to an 89 kDa fragment, and by appearance of bands (17 kDa, 19 kDa) recognized by an antibody specific to cleaved (activated) forms of caspase-3. (D) Flow cytometric analysis of annexin V-FITC/propidium Iodide (PI) staining for malignant cells treated with vehicle, camptothecin or XB05 as described in part B, in the presence or absence of the pan-caspase inhibitor Z-VAD-fmk (100 μM).\n(§2) After 72 h, cells were trypsinized (in the case of adherent cells), stained with trypan blue solution (0.4%) (BioRad, Hercules Calif.) and cell number and percent viability determined on a TC10 automated cell counter (BioRad) using triplicate measurements for each sample. Phase contrast microscopy images were obtained on an EVOSfI digital inverted microscope (Advanced Microscopy Group, Bothell, Wash.)."}, "Hs27 cells [2]": {"system": "Hs27 cells", "experiment": "Trypan blue exclusion assay", "settings": "Hs27, 72 h", "procedure": "as §1, §2"}, "U937 cells [3]": {"system": "U937 cells", "experiment": "Trypan blue exclusion assay", "settings": "U937, 1 μM, 72 h", "procedure": "as §1, §2"}, "A549 cells [4]": {"system": "A549 cells", "experiment": "Flow cytometric detection of γ-H2AX", "settings": "A549, 2 μM, 24 h", "procedure": "(§3) FIG. 11: XB05 Induces DNA Damage in Malignant Cells. (A) Alkaline comet assays for detection of DNA damage for cells treated as indicated for 72 h. TBHP was a positive control for oxidative DNA damage. Decreased DNA fluorescence in nucleoid comet heads (arrows) and increased smearing of DNA into comet tails (asterisks) is indicated. Scale bar, 400 μm. Data shown are representative of at least two individual experiments for each cell line. (B) Western blot analysis for γ-H2AX and GAPDH (loading control) in whole cell extracts from cells treated with vehicle, UV irradiation (800 μJ, positive control for DSBs), or XB05 (1 μM for U937, 2 μM for A549) after 24 h. Images shown are representative of three individual experiments in each cell line. (C) Flow cytometric detection of γ-H2AX in cells treated as described in part B. Bar graph represents mean+/−SEM for 3 individual experiments in each cell line. Statistical comparison indicated significant differences between vehicle and XB05-treated groups in both cell lines (*p≦0.05).\n(§4) Flow Cytometric Assays. Analyses were performed using a FACScalibur flow cytometer (BD Biosciences, Mountain View, Calif.) and FlowJo software (Tree Star, Inc., Ashland, Oreg.). […] Cells were then washed twice with PBS, re-suspended at a density of 1×10^6 cells/mL in PBS and analyzed by flow cytometry."}, "U937 cells [5]": {"system": "U937 cells", "experiment": "Flow cytometric detection of γ-H2AX", "settings": "U937, 1 μM, 24 h", "procedure": "as §3, §4"}, "A549 cells [6]": {"system": "A549 cells", "experiment": "MitoSOX Red mitochondrial superoxide, flow cytometry", "settings": "A549, 2 μM, 8 h", "procedure": "(§5) FIG. 7: XB05 Induces ROS. (A) Cells were treated with either vehicle, tert-butyl hydrogen peroxide (TBHP, 100 μM, 3 h) or XB05 (8 h with 1 μM for U937 and Hs27, or 2 μM for A549), then stained with carboxy-H2DCFDA and PI for analysis by flow cytometry. Histograms illustrate representative data and bar graphs show the increase (over vehicle control) in the percentage of PI-negative (viable) cells with positive DCF fluorescence in each sample. Bars represent the mean+/−SEM from three independent experiments. […] (B) Cells were treated with XB05 as described in part A. As a positive control for superoxide production, cells were treated with Antimycin A (10 μM) for 1 h. Cells were harvested and subjected to MitoSOX™ Red staining for analysis by flow cytometry as described in Methods. Histograms illustrate representative data and bar graphs show the mean+/−SEM for three independent experiments.\n(§6) Flow Cytometric Assays. Analyses were performed using a FACScalibur flow cytometer (BD Biosciences, Mountain View, Calif.) and FlowJo software (Tree Star, Inc., Ashland, Oreg.). Cells were treated as indicated in the figures and in the Brief Description of the Drawings. Cells were harvested by using TrypLE Cell Dissociation Reagent (Life Technologies). For cell death analyses, cells (adherent and detached cells) were stained with annexin-V-FITC and propidium iodide (PI) using the Apoptosis Detection Kit (BD Biosciences, San Jose, Calif.), according to the manufacturer's instructions. For cell-cycle distribution, cells were fixed, and stained with PI using the Cycle Test Plus kit (Becton Dickinson, Franklin Lakes, N.J.). For detection of γ-H2AX, cells were washed with PBS and fixed in 4% paraformaldehyde in PBS for 10 min at 37° C. Cells were then permeabilized in 90% methanol for 30 min on ice, blocked in 2% BSA (w/v in PBS) for 1 h, and incubated with γ-H2AX antibody or rabbit IgG isotype control (Santa Cruz, sc-2027) (0.3 μg/mL in 1% BSA) for 1 h. […] Cells were then washed twice with PBS, re-suspended at a density of 1×10^6 cells/mL in PBS and analyzed by flow cytometry."}, "Hs27 cells [7]": {"system": "Hs27 cells", "experiment": "MitoSOX Red mitochondrial superoxide, flow cytometry", "settings": "Hs27, 1 μM, 8 h", "procedure": "as §5, §6"}, "U937 cells [8]": {"system": "U937 cells", "experiment": "MitoSOX Red mitochondrial superoxide, flow cytometry", "settings": "U937, 1 μM, 8 h", "procedure": "as §5, §6"}, "A549 cells [9]": {"system": "A549 cells", "experiment": "Carboxy-H2DCFDA ROS detection, flow cytometry", "settings": "A549, 2 μM, 8 h", "procedure": "as §5, §6"}, "Hs27 cells [10]": {"system": "Hs27 cells", "experiment": "Carboxy-H2DCFDA ROS detection, flow cytometry", "settings": "Hs27, 1 μM, 8 h", "procedure": "as §5, §6"}, "U937 cells [11]": {"system": "U937 cells", "experiment": "Carboxy-H2DCFDA ROS detection, flow cytometry", "settings": "U937, 1 μM, 8 h", "procedure": "as §5, §6"}}, "data": [{"compound": "CCCCCC(O)C#CC(F)(F)Br", "note": "(centres unmarked) [XB05]", "values": [{"measurement": "cell death (trypan blue exclusion)", "setting": "A549 cells [1]", "result": "modest cell death"}, {"measurement": "cell death (trypan blue exclusion)", "setting": "Hs27 cells [2]", "result": "lowest levels of cell death"}, {"measurement": "cell death (trypan blue exclusion)", "setting": "U937 cells [3]", "result": "robust cell death"}, {"measurement": "increase in γ-H2AX staining compared to vehicle-treated controls", "setting": "A549 cells [4]", "result": 2.9, "unit": "fold"}, {"measurement": "increase in γ-H2AX staining compared to vehicle-treated controls", "setting": "U937 cells [5]", "result": 4.5, "unit": "fold"}, {"measurement": "MitoSOX Red fluorescence vs vehicle", "setting": "A549 cells [6]", "result": "increase in MitoSOX™ Red fluorescence"}, {"measurement": "MitoSOX Red fluorescence vs vehicle", "setting": "Hs27 cells [7]", "result": "not in Hs27 non-malignant fibroblasts"}, {"measurement": "MitoSOX Red fluorescence vs vehicle", "setting": "U937 cells [8]", "result": "increase in MitoSOX™ Red fluorescence"}, {"measurement": "levels of ROS (DCF-positive viable cells)", "setting": "A549 cells [9]", "result": "elevated"}, {"measurement": "levels of ROS (DCF-positive viable cells)", "setting": "Hs27 cells [10]", "result": "elevated"}, {"measurement": "levels of ROS (DCF-positive viable cells)", "setting": "U937 cells [11]", "result": "elevated"}]}]}
